Results reported in ChEMBL document CHEMBL5465560, “Selectivity Literature for EUbOPEN Chemogenomic Library” (2024).

What was measured:
[1] = molecular target: RAC-gamma serine/threonine-protein kinase (Homo sapiens, UniProt Q9Y243); details: at 10 µM
[2] = molecular target: Cyclin-dependent kinase 3 (Homo sapiens) (UniProt Q00526); assay: Selectivity interaction (KinomeScan (DiscoverX)) EUB0000229b CDK3; details: at 10 µM
[3] = molecular target: G protein-coupled receptor kinase 4 (Homo sapiens) (UniProt P32298); assay: Selectivity interaction (KinomeScan (DiscoverX)) EUB0000229b GRK4; details: at 10 µM
[4] = molecular target: T1, Serine/threonine-protein kinase RIO1 (Homo sapiens) (UniProt Q9BRS2); assay: Selectivity interaction (KinomeScan (DiscoverX)) EUB0000092b RIOK1; details: at 10 µM
T1 sequence (whole entry): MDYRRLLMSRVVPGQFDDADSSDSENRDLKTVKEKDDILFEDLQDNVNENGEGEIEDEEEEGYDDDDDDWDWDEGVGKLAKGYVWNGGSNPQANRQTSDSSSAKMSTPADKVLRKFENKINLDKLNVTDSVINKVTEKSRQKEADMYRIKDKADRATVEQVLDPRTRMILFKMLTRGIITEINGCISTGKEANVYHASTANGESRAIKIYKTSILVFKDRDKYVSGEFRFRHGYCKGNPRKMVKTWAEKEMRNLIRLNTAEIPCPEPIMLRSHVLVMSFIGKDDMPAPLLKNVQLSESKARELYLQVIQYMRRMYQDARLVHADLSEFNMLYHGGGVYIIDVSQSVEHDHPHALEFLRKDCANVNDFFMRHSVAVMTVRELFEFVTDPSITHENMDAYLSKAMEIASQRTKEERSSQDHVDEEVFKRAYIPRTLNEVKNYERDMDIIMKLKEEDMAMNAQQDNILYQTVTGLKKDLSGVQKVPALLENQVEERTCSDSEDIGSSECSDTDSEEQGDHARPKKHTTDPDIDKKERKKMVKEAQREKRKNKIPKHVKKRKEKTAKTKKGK

[5] = molecular target: Ephrin type-A receptor 7 (Homo sapiens) (UniProt Q15375); assay: Selectivity interaction (ProQinase) EUB0000171b EPHA7
[6] = molecular target: Tyrosine-protein kinase BTK (Homo sapiens, UniProt Q06187); assay: Selectivity interaction (SelectScreen profiling (Invitrogen)) EUB0000607a BTK; details: at 2 µM
[7] = molecular target: T2, RNA 5'-monophosphate methyltransferase (Homo sapiens) (UniProt Q7Z5W3); assay: Selectivity interaction (Methyltransferase screen (radiometric assays, panel of 8 PRMTs, 21 protein lysine methyltransferases, 3 DNA methyltransferases, and one RNA methyltransferase)) EUB0000271b BCDIN3D
T2 sequence (whole entry): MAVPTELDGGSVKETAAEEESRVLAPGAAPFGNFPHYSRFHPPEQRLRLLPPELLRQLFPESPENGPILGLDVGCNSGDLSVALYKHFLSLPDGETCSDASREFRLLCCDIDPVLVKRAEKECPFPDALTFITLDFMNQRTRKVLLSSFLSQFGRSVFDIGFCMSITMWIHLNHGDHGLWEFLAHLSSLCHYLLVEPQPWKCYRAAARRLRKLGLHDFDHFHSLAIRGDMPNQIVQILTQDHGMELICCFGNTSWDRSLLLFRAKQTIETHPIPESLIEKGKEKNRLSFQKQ

[8] = molecular target: Transient receptor potential cation channel subfamily M member 6 (Homo sapiens) (UniProt Q9BX84); assay: Selectivity interaction (KinomeScan (DiscoverX)) EUB0000595a TRPM6; details: at 10 µM
[9] = molecular target: Tyrosine-protein kinase Srms (Homo sapiens) (UniProt Q9H3Y6); assay: Selectivity interaction (KinomeScan (DiscoverX)) EUB0000045b SRMS
[10] = molecular target: Mitogen-activated protein kinase kinase kinase 11 (Homo sapiens) (UniProt Q16584); assay: Selectivity interaction (Kinase panel (literature)) EUB0001199aCl MAP3K11; details: at 1 µM
[11] = molecular target: Prostaglandin E2 receptor EP2 subtype (Homo sapiens) (UniProt P43116); assay: Selectivity interaction (Eurofins CEREP Diversity Profile (receptors and ion channels)) EUB0000279b PTGER2; details: at 10 µM
[12] = molecular target: T3, cAMP-dependent protein kinase catalytic subunit PRKX (Homo sapiens) (UniProt P51817); assay: Selectivity interaction (Kinase screening (Nanosyn)) EUB0000604a PRKX
T3 sequence (whole entry): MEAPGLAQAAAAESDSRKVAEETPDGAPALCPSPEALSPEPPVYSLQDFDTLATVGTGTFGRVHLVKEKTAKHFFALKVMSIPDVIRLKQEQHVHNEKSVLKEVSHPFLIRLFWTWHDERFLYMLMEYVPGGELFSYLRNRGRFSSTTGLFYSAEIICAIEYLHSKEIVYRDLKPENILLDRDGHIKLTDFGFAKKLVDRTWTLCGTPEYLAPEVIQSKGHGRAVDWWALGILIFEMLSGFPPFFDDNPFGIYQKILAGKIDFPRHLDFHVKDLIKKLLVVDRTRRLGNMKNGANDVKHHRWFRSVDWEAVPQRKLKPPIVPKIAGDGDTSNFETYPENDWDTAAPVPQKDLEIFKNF

Tyrosine-protein kinase Srms (Homo sapiens), sequence (Q9H3Y6 whole entry): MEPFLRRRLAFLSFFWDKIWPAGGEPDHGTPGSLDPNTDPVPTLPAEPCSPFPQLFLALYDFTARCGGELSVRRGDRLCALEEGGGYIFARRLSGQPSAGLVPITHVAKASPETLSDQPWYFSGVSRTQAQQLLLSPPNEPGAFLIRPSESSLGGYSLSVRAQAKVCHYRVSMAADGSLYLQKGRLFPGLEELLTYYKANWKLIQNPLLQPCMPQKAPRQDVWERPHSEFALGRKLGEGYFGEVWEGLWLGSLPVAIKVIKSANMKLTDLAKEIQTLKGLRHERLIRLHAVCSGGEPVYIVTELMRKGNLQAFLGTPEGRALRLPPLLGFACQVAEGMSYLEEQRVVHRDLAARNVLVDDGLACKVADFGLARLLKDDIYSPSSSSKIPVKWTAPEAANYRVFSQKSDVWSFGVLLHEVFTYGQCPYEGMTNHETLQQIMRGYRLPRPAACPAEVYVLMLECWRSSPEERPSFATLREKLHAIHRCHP
Ephrin type-A receptor 7 (Homo sapiens), sequence (Q15375 28-998 limits assumed): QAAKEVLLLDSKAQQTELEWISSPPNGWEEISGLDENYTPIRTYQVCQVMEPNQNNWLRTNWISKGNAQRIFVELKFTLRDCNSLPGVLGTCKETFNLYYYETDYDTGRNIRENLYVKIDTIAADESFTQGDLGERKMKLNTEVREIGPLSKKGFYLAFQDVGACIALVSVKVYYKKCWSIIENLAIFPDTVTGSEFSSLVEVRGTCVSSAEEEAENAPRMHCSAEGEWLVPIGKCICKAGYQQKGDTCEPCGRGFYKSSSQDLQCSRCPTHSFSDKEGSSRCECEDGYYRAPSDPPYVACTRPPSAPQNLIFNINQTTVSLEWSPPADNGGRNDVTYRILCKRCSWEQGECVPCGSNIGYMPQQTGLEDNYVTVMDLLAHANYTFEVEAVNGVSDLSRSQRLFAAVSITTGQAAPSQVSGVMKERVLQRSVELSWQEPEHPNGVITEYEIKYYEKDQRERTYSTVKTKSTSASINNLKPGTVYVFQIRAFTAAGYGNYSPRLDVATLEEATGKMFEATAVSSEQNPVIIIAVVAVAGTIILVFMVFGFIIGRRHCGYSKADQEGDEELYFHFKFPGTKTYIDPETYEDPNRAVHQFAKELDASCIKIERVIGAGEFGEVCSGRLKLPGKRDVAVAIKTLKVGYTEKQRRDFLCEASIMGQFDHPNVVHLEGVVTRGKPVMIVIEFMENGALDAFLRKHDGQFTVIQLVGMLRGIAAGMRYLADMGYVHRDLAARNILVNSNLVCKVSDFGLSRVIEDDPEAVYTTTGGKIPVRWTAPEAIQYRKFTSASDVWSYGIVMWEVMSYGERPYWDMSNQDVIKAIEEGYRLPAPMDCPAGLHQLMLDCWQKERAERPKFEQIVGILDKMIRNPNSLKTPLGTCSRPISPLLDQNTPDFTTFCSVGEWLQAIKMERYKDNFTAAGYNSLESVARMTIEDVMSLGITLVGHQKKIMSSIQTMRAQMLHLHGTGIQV
Transient receptor potential cation channel subfamily M member 6 (Homo sapiens), sequence (Q9BX84 whole entry): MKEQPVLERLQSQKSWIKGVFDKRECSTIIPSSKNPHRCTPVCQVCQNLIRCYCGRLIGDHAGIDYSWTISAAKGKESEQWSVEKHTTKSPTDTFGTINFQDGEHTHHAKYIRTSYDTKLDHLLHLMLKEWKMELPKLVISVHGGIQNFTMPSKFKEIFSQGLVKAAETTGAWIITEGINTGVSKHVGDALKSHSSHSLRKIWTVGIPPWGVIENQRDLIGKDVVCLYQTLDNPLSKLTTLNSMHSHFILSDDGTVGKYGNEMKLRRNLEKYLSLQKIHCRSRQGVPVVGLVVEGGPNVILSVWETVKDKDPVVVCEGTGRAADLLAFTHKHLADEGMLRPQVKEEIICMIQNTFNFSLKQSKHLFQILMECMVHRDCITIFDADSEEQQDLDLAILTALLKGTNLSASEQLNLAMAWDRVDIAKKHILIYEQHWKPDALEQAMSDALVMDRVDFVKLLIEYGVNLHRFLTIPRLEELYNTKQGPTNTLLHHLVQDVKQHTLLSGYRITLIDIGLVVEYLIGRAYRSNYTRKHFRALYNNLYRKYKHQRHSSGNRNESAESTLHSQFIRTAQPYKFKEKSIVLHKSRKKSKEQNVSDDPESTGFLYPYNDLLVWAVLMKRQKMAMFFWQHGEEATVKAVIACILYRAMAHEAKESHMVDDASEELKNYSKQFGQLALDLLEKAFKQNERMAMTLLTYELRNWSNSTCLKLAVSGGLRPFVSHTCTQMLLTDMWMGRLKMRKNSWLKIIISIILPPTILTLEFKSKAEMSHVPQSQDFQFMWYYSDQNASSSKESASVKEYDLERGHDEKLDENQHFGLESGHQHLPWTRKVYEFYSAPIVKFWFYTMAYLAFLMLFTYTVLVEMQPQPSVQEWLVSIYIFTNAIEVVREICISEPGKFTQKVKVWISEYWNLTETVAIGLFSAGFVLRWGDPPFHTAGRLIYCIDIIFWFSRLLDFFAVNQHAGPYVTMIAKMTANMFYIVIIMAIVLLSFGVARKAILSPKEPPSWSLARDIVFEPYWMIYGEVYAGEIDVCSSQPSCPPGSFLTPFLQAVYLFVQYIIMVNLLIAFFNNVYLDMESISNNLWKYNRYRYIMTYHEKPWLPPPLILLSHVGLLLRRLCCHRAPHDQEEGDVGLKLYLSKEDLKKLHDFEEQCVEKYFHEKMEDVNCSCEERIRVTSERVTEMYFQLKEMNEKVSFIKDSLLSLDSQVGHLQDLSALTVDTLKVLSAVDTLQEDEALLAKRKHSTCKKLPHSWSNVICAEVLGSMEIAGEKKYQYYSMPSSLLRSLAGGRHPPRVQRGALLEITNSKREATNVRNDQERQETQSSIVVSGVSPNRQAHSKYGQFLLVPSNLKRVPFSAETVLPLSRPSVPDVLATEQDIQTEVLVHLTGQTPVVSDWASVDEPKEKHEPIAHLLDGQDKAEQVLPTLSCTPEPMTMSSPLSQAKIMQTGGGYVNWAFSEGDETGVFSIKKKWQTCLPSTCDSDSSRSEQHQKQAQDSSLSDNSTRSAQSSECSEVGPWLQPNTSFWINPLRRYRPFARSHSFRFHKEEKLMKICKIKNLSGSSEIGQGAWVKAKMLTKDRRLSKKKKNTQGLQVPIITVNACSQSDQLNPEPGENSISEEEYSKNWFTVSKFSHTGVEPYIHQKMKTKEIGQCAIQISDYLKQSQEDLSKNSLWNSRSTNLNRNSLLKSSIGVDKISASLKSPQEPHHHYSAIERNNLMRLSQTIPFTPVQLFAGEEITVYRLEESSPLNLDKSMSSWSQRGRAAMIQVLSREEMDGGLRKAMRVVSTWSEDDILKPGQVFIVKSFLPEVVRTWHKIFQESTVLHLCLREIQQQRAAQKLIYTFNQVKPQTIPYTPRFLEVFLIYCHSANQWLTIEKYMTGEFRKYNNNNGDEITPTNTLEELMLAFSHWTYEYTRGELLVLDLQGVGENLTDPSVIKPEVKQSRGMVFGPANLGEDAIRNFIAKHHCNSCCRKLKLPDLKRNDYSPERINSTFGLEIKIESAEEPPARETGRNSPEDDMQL
RAC-gamma serine/threonine-protein kinase, sequence (Q9Y243 whole entry): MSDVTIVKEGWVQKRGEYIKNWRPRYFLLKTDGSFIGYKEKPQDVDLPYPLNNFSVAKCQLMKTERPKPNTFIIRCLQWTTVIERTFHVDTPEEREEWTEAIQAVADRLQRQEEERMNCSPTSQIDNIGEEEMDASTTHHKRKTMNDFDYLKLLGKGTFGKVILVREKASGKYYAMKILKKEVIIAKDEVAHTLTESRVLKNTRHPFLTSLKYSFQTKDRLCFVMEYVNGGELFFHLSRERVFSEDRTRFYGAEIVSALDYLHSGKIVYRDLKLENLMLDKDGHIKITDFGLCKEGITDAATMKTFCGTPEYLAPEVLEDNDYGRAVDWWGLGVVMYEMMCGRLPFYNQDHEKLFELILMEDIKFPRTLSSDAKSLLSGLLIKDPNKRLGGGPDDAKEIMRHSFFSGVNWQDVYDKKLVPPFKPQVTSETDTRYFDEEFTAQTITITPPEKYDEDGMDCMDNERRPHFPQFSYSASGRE
G protein-coupled receptor kinase 4 (Homo sapiens), sequence (P32298 whole entry, looked up): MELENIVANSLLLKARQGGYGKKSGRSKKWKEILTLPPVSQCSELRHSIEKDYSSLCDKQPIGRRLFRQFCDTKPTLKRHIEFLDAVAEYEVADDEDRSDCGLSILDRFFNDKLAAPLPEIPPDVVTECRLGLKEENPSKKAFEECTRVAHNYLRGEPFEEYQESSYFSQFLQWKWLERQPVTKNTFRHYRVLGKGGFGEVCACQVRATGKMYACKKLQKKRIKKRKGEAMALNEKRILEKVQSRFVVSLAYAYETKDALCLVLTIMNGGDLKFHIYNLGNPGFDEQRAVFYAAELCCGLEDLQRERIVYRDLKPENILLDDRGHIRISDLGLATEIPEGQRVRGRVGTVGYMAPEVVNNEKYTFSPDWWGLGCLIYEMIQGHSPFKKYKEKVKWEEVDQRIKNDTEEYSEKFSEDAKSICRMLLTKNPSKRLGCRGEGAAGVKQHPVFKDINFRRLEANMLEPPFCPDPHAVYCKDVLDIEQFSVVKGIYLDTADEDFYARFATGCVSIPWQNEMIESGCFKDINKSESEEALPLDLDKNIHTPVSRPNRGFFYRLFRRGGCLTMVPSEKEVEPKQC
Cyclin-dependent kinase 3 (Homo sapiens), sequence (Q00526 whole entry, looked up): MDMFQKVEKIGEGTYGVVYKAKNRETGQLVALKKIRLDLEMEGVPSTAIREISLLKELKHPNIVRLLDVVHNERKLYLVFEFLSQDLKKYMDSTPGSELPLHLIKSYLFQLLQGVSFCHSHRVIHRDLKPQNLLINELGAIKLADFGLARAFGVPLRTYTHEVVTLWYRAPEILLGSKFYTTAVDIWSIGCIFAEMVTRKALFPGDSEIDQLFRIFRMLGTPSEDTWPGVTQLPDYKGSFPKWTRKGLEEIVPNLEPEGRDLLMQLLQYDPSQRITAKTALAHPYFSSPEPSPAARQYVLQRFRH

CCN(CC)CCCCNc1ncc2cc(-c3cc(OC)cc(OC)c3)c(NC(=O)NC(C)(C)C)nc2n1
% of control [1]: 100%

COc1cc(N(C)c2ccnc3ccc(C(F)(F)F)cc23)cc(OC)c1OC
% binding [2]: 100%
% binding [3]: 90%

CCC(=O)N1CCN(c2ccc(-n3c(=O)ccc4cnc5ccc(-c6cnc7ccccc7c6)cc5c43)cc2C(F)(F)F)CC1
% of control [4]: 81%

C=CC(=O)Nc1cccc(C(=O)Nc2ccc(Nc3cc(-c4[nH]c(SC)nc4C)ccn3)cc2)c1
% of control ([5]; at 1 µM): 93%
% of control ([5]; at 5 µM): 89%

CNC(=O)Nc1ccc(-c2nc(N3CC4CCC(C3)O4)c3cnn(C4CCC5(CC4)OCCO5)c3n2)cc1
% of inhibition [6]: 3%

Cc1cc(C)cc([C@@H]2c3cc(C)ccc3NC(=O)CN2C(=O)c2ccc(Br)s2)c1
% of activity ([7]; at 1 µM): 100%
% of activity ([7]; at 10 µM): 101%

COCC(=O)NC/C=C/c1ccc2ncnc(Nc3ccc(Oc4ccc(C)nc4)c(C)c3)c2c1 [CP-724714]
% of control [8]: 100%

C=CC(=O)Nc1cc(-n2c(=O)ccc3cnc4ccc(-c5ccc(NS(C)(=O)=O)cc5)cc4c32)ccc1C
% of control ([9]; at 1 µM): 100%
% of control ([9]; at 10 µM): 100%

CN1Cc2nccc(-c3cn(C)nc3-c3ccc(F)cc3)c2C1=O
% of inhibition [10]: 3%

CC(=O)c1cc(-c2ccccc2OCC2CC2)c2ncccn12
% of control [11]: 95%

Cc1cnc(Nc2ccc(F)cc2Cl)nc1-c1c[nH]c(C(=O)N[C@H](CO)c2cccc(Cl)c2)c1
% of inhibition [12]: 3%
